Assay results as given in the NIST ThermoML archive (doi:10.1016/j.tca.2015.06.017).

Test: xn = mol fraction of the nth substance listed
Conditions: Liquid, Vibrating tube method

CC(C)CCl [1-chloro-2-methylpropane] + CCCCCCC
mass density [kg/m3]
Conditions | 283.15 K | 293.15 K | 298.15 K
100 kPa, x2 = 0.0531 | 874.07 | 862.97 | 857.37
100 kPa, x2 = 0.1023 | 861 | 850.09 | 844.58
100 kPa, x2 = 0.2009 | 836.3 | 825.74 | 820.42
100 kPa, x2 = 0.3009 | 813.26 | 803.04 | 797.89
100 kPa, x2 = 0.3981 | 792.55 | 782.63 | 777.63
100 kPa, x2 = 0.4986 | 772.68 | 763.05 | 758.2
100 kPa, x2 = 0.5998 | 754.11 | 744.76 | 740.04
100 kPa, x2 = 0.7038 | 736.38 | 727.31 | 722.73
100 kPa, x2 = 0.7993 | 721.25 | 712.4 | 707.93
100 kPa, x2 = 0.8995 | 706.4 | 697.78 | 693.43
100 kPa, x2 = 0.9507 | 699.19 | 690.68 | 686.38
2000 kPa, x2 = 0.0531 | 876.04 | 865 | 859.45
2000 kPa, x2 = 0.1023 | 862.99 | 852.14 | 846.69
2000 kPa, x2 = 0.2009 | 838.37 | 827.88 | 822.61
2000 kPa, x2 = 0.3009 | 815.32 | 805.15 | 800.07
2000 kPa, x2 = 0.3981 | 794.55 | 784.68 | 779.77
2000 kPa, x2 = 0.4986 | 774.64 | 765.08 | 760.3
2000 kPa, x2 = 0.5998 | 756.04 | 746.74 | 742.16
2000 kPa, x2 = 0.7038 | 738.29 | 729.29 | 724.79
2000 kPa, x2 = 0.7993 | 723.14 | 714.35 | 709.96
2000 kPa, x2 = 0.8995 | 708.31 | 699.74 | 695.5
2000 kPa, x2 = 0.9507 | 701.15 | 692.69 | 688.51
5000 kPa, x2 = 0.0531 | 879.03 | 868.28 | 862.78
5000 kPa, x2 = 0.1023 | 865.96 | 855.4 | 849.99
5000 kPa, x2 = 0.2009 | 841.29 | 831.08 | 825.85
5000 kPa, x2 = 0.3009 | 818.18 | 808.31 | 803.24
5000 kPa, x2 = 0.3981 | 797.37 | 787.79 | 782.87
5000 kPa, x2 = 0.4986 | 777.41 | 768.11 | 763.35
5000 kPa, x2 = 0.5998 | 758.77 | 749.74 | 745.14
5000 kPa, x2 = 0.7038 | 741 | 732.21 | 727.73
5000 kPa, x2 = 0.7993 | 725.78 | 717.25 | 712.83
5000 kPa, x2 = 0.8995 | 710.91 | 702.62 | 698.32
5000 kPa, x2 = 0.9507 | 703.73 | 695.55 | 691.31
7000 kPa, x2 = 0.0531 | 880.97 | 870.39 | 864.94
7000 kPa, x2 = 0.1023 | 867.88 | 857.47 | 852.13
7000 kPa, x2 = 0.2009 | 843.19 | 833.12 | 827.95
7000 kPa, x2 = 0.3009 | 820.06 | 810.3 | 805.31
7000 kPa, x2 = 0.3981 | 799.24 | 789.75 | 784.94
7000 kPa, x2 = 0.4986 | 779.24 | 770.05 | 765.38
7000 kPa, x2 = 0.5998 | 760.58 | 751.63 | 747.13
7000 kPa, x2 = 0.7038 | 742.77 | 734.07 | 729.69
7000 kPa, x2 = 0.7993 | 727.56 | 719.06 | 714.76
7000 kPa, x2 = 0.8995 | 712.67 | 704.42 | 700.23
7000 kPa, x2 = 0.9507 | 705.48 | 697.32 | 693.2
10000 kPa, x2 = 0.0531 | 883.84 | 873.43 | 868.11
10000 kPa, x2 = 0.1023 | 870.72 | 860.49 | 855.26
10000 kPa, x2 = 0.2009 | 845.97 | 836.1 | 831
10000 kPa, x2 = 0.3009 | 822.78 | 813.24 | 808.29
10000 kPa, x2 = 0.3981 | 801.92 | 792.65 | 787.84
10000 kPa, x2 = 0.4986 | 781.87 | 772.89 | 768.21
10000 kPa, x2 = 0.5998 | 763.16 | 754.46 | 749.91
10000 kPa, x2 = 0.7038 | 745.31 | 736.87 | 732.42
10000 kPa, x2 = 0.7993 | 730.05 | 721.81 | 717.45
10000 kPa, x2 = 0.8995 | 715.13 | 707.11 | 702.88
10000 kPa, x2 = 0.9507 | 707.91 | 700 | 695.78
20000 kPa, x2 = 0.0531 | 892.78 | 882.96 | 877.88
20000 kPa, x2 = 0.1023 | 879.6 | 869.95 | 865.08
20000 kPa, x2 = 0.2009 | 854.73 | 845.39 | 840.5
20000 kPa, x2 = 0.3009 | 831.42 | 822.38 | 817.71
20000 kPa, x2 = 0.3981 | 810.43 | 801.64 | 797.11
20000 kPa, x2 = 0.4986 | 790.3 | 781.73 | 777.37
20000 kPa, x2 = 0.5998 | 771.47 | 763.14 | 758.88
20000 kPa, x2 = 0.7038 | 753.52 | 745.41 | 741.28
20000 kPa, x2 = 0.7993 | 738.16 | 730.25 | 726.13
20000 kPa, x2 = 0.8995 | 723.13 | 715.39 | 711.41
20000 kPa, x2 = 0.9507 | 715.85 | 708.22 | 704.25
30000 kPa, x2 = 0.0531 | 900.97 | 891.52 | 886.78
30000 kPa, x2 = 0.1023 | 887.68 | 878.34 | 873.9
30000 kPa, x2 = 0.2009 | 862.6 | 853.68 | 849.18
30000 kPa, x2 = 0.3009 | 839.17 | 830.55 | 826.21
30000 kPa, x2 = 0.3981 | 818.12 | 809.73 | 805.55
30000 kPa, x2 = 0.4986 | 797.85 | 789.74 | 785.57
30000 kPa, x2 = 0.5998 | 778.93 | 771.06 | 766.94
30000 kPa, x2 = 0.7038 | 760.8 | 753.18 | 749.15
30000 kPa, x2 = 0.7993 | 745.44 | 737.88 | 733.94
30000 kPa, x2 = 0.8995 | 730.29 | 722.93 | 719.07
30000 kPa, x2 = 0.9507 | 722.95 | 715.7 | 711.84
40000 kPa, x2 = 0.0531 | 908.57 | 899.47 | 895.02
40000 kPa, x2 = 0.1023 | 895.22 | 886.28 | 882.04
40000 kPa, x2 = 0.2009 | 870.06 | 861.43 | 857.18
40000 kPa, x2 = 0.3009 | 846.56 | 838.11 | 834.09
40000 kPa, x2 = 0.3981 | 825.29 | 817.16 | 813.22
40000 kPa, x2 = 0.4986 | 804.92 | 797.04 | 793.13
40000 kPa, x2 = 0.5998 | 785.84 | 778.18 | 774.36
40000 kPa, x2 = 0.7038 | 767.67 | 760.15 | 756.46
40000 kPa, x2 = 0.7993 | 752.19 | 744.84 | 741.11
40000 kPa, x2 = 0.8995 | 736.93 | 729.76 | 726.12
40000 kPa, x2 = 0.9507 | 729.53 | 722.48 | 718.83
50000 kPa, x2 = 0.0531 | 915.66 | 906.83 | 902.53
50000 kPa, x2 = 0.1023 | 902.32 | 893.73 | 889.53
50000 kPa, x2 = 0.2009 | 876.98 | 868.58 | 864.58
50000 kPa, x2 = 0.3009 | 853.42 | 845.22 | 841.36
50000 kPa, x2 = 0.3981 | 832.08 | 824.17 | 820.34
50000 kPa, x2 = 0.4986 | 811.56 | 803.9 | 800.16
50000 kPa, x2 = 0.5998 | 792.36 | 784.93 | 781.27
50000 kPa, x2 = 0.7038 | 774.06 | 766.85 | 763.24
50000 kPa, x2 = 0.7993 | 758.41 | 751.39 | 747.78
50000 kPa, x2 = 0.8995 | 743.05 | 736.21 | 732.67
50000 kPa, x2 = 0.9507 | 735.59 | 728.86 | 725.32
60000 kPa, x2 = 0.0531 | 922.27 | 913.81 | 909.64
60000 kPa, x2 = 0.1023 | 908.86 | 900.5 | 896.54
60000 kPa, x2 = 0.2009 | 883.47 | 875.39 | 871.48
60000 kPa, x2 = 0.3009 | 859.78 | 851.83 | 848.21
60000 kPa, x2 = 0.3981 | 838.33 | 830.75 | 827.13
60000 kPa, x2 = 0.4986 | 817.73 | 810.36 | 806.82
60000 kPa, x2 = 0.5998 | 798.43 | 791.29 | 787.83
60000 kPa, x2 = 0.7038 | 780.03 | 773.13 | 769.72
60000 kPa, x2 = 0.7993 | 764.33 | 757.58 | 754.16
60000 kPa, x2 = 0.8995 | 748.87 | 742.31 | 738.97
60000 kPa, x2 = 0.9507 | 741.35 | 734.9 | 731.55
65000 kPa, x2 = 0.0531 | 925.46 | 917.1 | 913.06
65000 kPa, x2 = 0.1023 | 912 | 903.79 | 899.93
65000 kPa, x2 = 0.2009 | 886.55 | 878.75 | 874.82
65000 kPa, x2 = 0.3009 | 862.78 | 855.14 | 851.5
65000 kPa, x2 = 0.3981 | 841.29 | 833.84 | 830.36
65000 kPa, x2 = 0.4986 | 820.65 | 813.47 | 810
65000 kPa, x2 = 0.5998 | 801.22 | 794.31 | 790.97
65000 kPa, x2 = 0.7038 | 782.82 | 775.99 | 772.79
65000 kPa, x2 = 0.7993 | 767.1 | 760.39 | 757.19
65000 kPa, x2 = 0.8995 | 751.59 | 745.06 | 741.93
65000 kPa, x2 = 0.9507 | 744.04 | 737.63 | 734.52
